Experimental data as given in PubChem BioAssay (NCI).
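Each compound was tested at five concentrations against cells in 96-well plates for 48 hours. Here, GI50 denotes the concentration required for 50% inhibition of growth. TGI is the concentration that stops growth completely.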

Experiments:
Experiment in all cases: inhibition of tumour cell growth, NCI panel, 48 h; in the data active = GI50 below about 0.43 µM; inactive = the rest
ACHN renal = tested on: ACHN renal
SNB-75 CNS = tested on: SNB-75 CNS
OVCAR-8 ovarian = tested on: OVCAR-8 ovarian
DU-145 prostate = tested on: DU-145 prostate
HCC-2998 colon = tested on: HCC-2998 colon
SF-268 CNS = tested on: SF-268 CNS
HOP-92 NSCLC = tested on: HOP-92 NSCLC
HCT-15 colon = tested on: HCT-15 colon
MALME-3M melanoma = tested on: MALME-3M melanoma
MDA-MB-435 = tested on: MDA-MB-435
MCF7 breast = tested on: MCF7 breast
UO-31 renal = tested on: UO-31 renal
HOP-62 NSCLC = tested on: HOP-62 NSCLC
T-47D breast = tested on: T-47D breast
OVCAR-3 ovarian = tested on: OVCAR-3 ovarian
UACC-62 melanoma = tested on: UACC-62 melanoma
UACC-257 melanoma = tested on: UACC-257 melanoma
RXF 393 renal = tested on: RXF 393 renal
SK-MEL-2 melanoma = tested on: SK-MEL-2 melanoma
SF-295 CNS = tested on: SF-295 CNS
M14 melanoma = tested on: M14 melanoma
SW-620 colon = tested on: SW-620 colon
COLO 205 colon = tested on: COLO 205 colon
SF-539 CNS = tested on: SF-539 CNS
OVCAR-5 ovarian = tested on: OVCAR-5 ovarian
KM12 colon = tested on: KM12 colon
MOLT-4 leukemia = tested on: MOLT-4 leukemia
SN12C renal = tested on: SN12C renal
HCT-116 colon = tested on: HCT-116 colon
OVCAR-4 ovarian = tested on: OVCAR-4 ovarian
NCI/ADR-RES ovarian = tested on: NCI/ADR-RES ovarian
TK-10 renal = tested on: TK-10 renal
HS 578T breast = tested on: HS 578T breast
A549 NSCLC = tested on: A549 NSCLC
EKVX NSCLC = tested on: EKVX NSCLC
SK-MEL-28 melanoma = tested on: SK-MEL-28 melanoma
K-562 leukemia = tested on: K-562 leukemia
LOX IMVI melanoma = tested on: LOX IMVI melanoma
CAKI-1 renal = tested on: CAKI-1 renal
NCI-H522 lung = tested on: NCI-H522 lung
NCI-H460 lung = tested on: NCI-H460 lung
RPMI-8226 leukemia = tested on: RPMI-8226 leukemia
SNB-19 CNS = tested on: SNB-19 CNS
HT29 colon = tested on: HT29 colon
A498 renal = tested on: A498 renal
NCI-H23 lung = tested on: NCI-H23 lung
IGROV1 ovarian = tested on: IGROV1 ovarian
PC-3 prostate = tested on: PC-3 prostate
NCI-H226 lung = tested on: NCI-H226 lung
U251 CNS = tested on: U251 CNS
MDA-MB-231 breast = tested on: MDA-MB-231 breast
786-0 renal = tested on: 786-0 renal
SR leukemia = tested on: SR leukemia
SK-MEL-5 melanoma = tested on: SK-MEL-5 melanoma
HL-60(TB) leukemia = tested on: HL-60(TB) leukemia
SK-OV-3 ovarian = tested on: SK-OV-3 ovarian

O=C(c1ccccc1)c1cc(Cl)ccc1OCCCCN1CCN(CCCCOc2ccc(Cl)cc2C(=O)c2ccccc2)CC1
4.78 µM: TGI (COLO 205 colon)
13.5 µM: TGI (PC-3 prostate)
7.57 µM: TGI (UACC-257 melanoma)
3.77 µM: TGI (MALME-3M melanoma)
24.2 µM: TGI (SK-MEL-28 melanoma)
4.87 µM: TGI (K-562 leukemia) | TGI (NCI-H460 lung)
7.66 µM: TGI (HT29 colon)
4.27 µM: TGI (HCT-15 colon)
3.83 µM: TGI (NCI-H522 lung)
3.7 µM: TGI (786-0 renal)
8.5 µM: TGI (SW-620 colon)
20.9 µM: TGI (A549 NSCLC)
3.22 µM: TGI (IGROV1 ovarian)
15.6 µM: TGI (SF-539 CNS)
28.6 µM: TGI (A498 renal)
4.05 µM: TGI (HCC-2998 colon)
22.4 µM: TGI (T-47D breast)
3.37 µM: TGI (OVCAR-8 ovarian)
4.14 µM: TGI (M14 melanoma) | TGI (U251 CNS)
15.1 µM: TGI (UO-31 renal) | TGI (CAKI-1 renal)
32.2 µM: TGI (NCI-H226 lung)
2.8 µM: TGI (RPMI-8226 leukemia)
24.7 µM: TGI (EKVX NSCLC)
4.43 µM: TGI (HS 578T breast)
21.9 µM: TGI (UACC-62 melanoma)
4.89 µM: TGI (SR leukemia)
4.88 µM: TGI (SK-MEL-5 melanoma)
3.21 µM: TGI (LOX IMVI melanoma)
12 µM: TGI (NCI/ADR-RES ovarian)
23.8 µM: TGI (SF-268 CNS)
3.38 µM: TGI (HCT-116 colon)
10.1 µM: TGI (DU-145 prostate)
17 µM: TGI (TK-10 renal)
inactive: GI50 (ACHN renal) 4.64 µM | GI50 (SNB-75 CNS) 6.98 µM | GI50 (OVCAR-8 ovarian) 1.82 µM | GI50 (DU-145 prostate) 2.74 µM | GI50 (HCC-2998 colon) 2.13 µM | GI50 (SF-268 CNS) 7.03 µM | GI50 (HOP-92 NSCLC) 2.53 µM | GI50 (HCT-15 colon) 2.1 µM | GI50 (MALME-3M melanoma) 1.61 µM | GI50 (MDA-MB-435) 3.65 µM | GI50 (MCF7 breast) 1.98 µM | GI50 (UO-31 renal) 3.86 µM | GI50 (HOP-62 NSCLC) 3.82 µM | GI50 (T-47D breast) 4.59 µM | GI50 (OVCAR-3 ovarian) 2.36 µM | GI50 (UACC-62 melanoma) 9.87 µM | GI50 (UACC-257 melanoma) 3.07 µM | GI50 (RXF 393 renal) 2.53 µM | GI50 (SK-MEL-2 melanoma) 2.58 µM | GI50 (SF-295 CNS) 2 µM | GI50 (M14 melanoma) 2.01 µM | GI50 (SW-620 colon) 2.92 µM | GI50 (COLO 205 colon) 1.95 µM | GI50 (SF-539 CNS) 4.8 µM | GI50 (OVCAR-5 ovarian) 17.9 µM | GI50 (KM12 colon) 2.09 µM | GI50 (MOLT-4 leukemia) 3.3 µM | GI50 (SN12C renal) 4.48 µM | GI50 (HCT-116 colon) 1.79 µM | GI50 (OVCAR-4 ovarian) 6.63 µM | GI50 (NCI/ADR-RES ovarian) 2.93 µM | GI50 (TK-10 renal) 4.26 µM | GI50 (HS 578T breast) 2.19 µM | GI50 (A549 NSCLC) 6.6 µM | GI50 (EKVX NSCLC) 10.8 µM | GI50 (SK-MEL-28 melanoma) 11.5 µM | GI50 (K-562 leukemia) 1.9 µM | GI50 (LOX IMVI melanoma) 1.73 µM | GI50 (CAKI-1 renal) 4.08 µM | GI50 (NCI-H522 lung) 2.09 µM | GI50 (NCI-H460 lung) 2.17 µM | GI50 (RPMI-8226 leukemia) 1.16 µM | GI50 (SNB-19 CNS) 10 µM | GI50 (HT29 colon) 2.59 µM | GI50 (A498 renal) 15.2 µM | GI50 (NCI-H23 lung) 4.73 µM | GI50 (IGROV1 ovarian) 1.6 µM | GI50 (PC-3 prostate) 3.59 µM | GI50 (NCI-H226 lung) 13.2 µM | GI50 (U251 CNS) 2.03 µM | GI50 (MDA-MB-231 breast) 2.4 µM | GI50 (786-0 renal) 1.96 µM | GI50 (SR leukemia) 1.83 µM | GI50 (SK-MEL-5 melanoma) 2.34 µM | GI50 (HL-60(TB) leukemia) 2.3 µM | GI50 (SK-OV-3 ovarian) 17.1 µM
11.9 µM: TGI (MDA-MB-435)
22.8 µM: TGI (SNB-19 CNS)
48.1 µM: TGI (OVCAR-5 ovarian)
5.08 µM: TGI (RXF 393 renal)
24.9 µM: TGI (SNB-75 CNS)
7.5 µM: TGI (MOLT-4 leukemia)
13.6 µM: TGI (HOP-62 NSCLC)
4.55 µM: TGI (KM12 colon)
13 µM: TGI (HOP-92 NSCLC)
20.5 µM: TGI (OVCAR-4 ovarian)
18 µM: TGI (SN12C renal)
5.75 µM: TGI (MDA-MB-231 breast)
5.78 µM: TGI (OVCAR-3 ovarian)
4.9 µM: TGI (HL-60(TB) leukemia)
4.92 µM: TGI (SK-MEL-2 melanoma)
31.9 µM: TGI (SK-OV-3 ovarian)
18.3 µM: TGI (NCI-H23 lung)
4.83 µM: TGI (MCF7 breast)
4.15 µM: TGI (SF-295 CNS)
16.1 µM: TGI (ACHN renal)

O/N=C1/COC(C(F)(F)F)(C(F)(F)F)C1
> 100 µM: TGI (ACHN renal) | TGI (SNB-75 CNS) | TGI (OVCAR-8 ovarian) | TGI (DU-145 prostate) | TGI (HCC-2998 colon) | TGI (SF-268 CNS) | TGI (HOP-92 NSCLC) | TGI (HCT-15 colon) | TGI (MALME-3M melanoma) | TGI (MDA-MB-435) | TGI (MCF7 breast) | TGI (UO-31 renal) | TGI (HOP-62 NSCLC) | TGI (T-47D breast) | TGI (OVCAR-3 ovarian) | TGI (UACC-62 melanoma) | TGI (UACC-257 melanoma) | TGI (RXF 393 renal) | TGI (SK-MEL-2 melanoma) | TGI (SF-295 CNS) | TGI (M14 melanoma) | TGI (SW-620 colon) | TGI (COLO 205 colon) | TGI (SF-539 CNS) | TGI (OVCAR-5 ovarian) | TGI (KM12 colon) | TGI (MOLT-4 leukemia) | TGI (SN12C renal) | TGI (HCT-116 colon) | TGI (OVCAR-4 ovarian) | TGI (NCI/ADR-RES ovarian) | TGI (TK-10 renal) | TGI (HS 578T breast) | TGI (A549 NSCLC) | TGI (EKVX NSCLC) | TGI (SK-MEL-28 melanoma) | TGI (LOX IMVI melanoma) | TGI (CAKI-1 renal) | TGI (NCI-H522 lung) | TGI (NCI-H460 lung) | TGI (RPMI-8226 leukemia) | TGI (SNB-19 CNS) | TGI (HT29 colon) | TGI (A498 renal) | TGI (NCI-H23 lung) | TGI (IGROV1 ovarian) | TGI (PC-3 prostate) | TGI (NCI-H226 lung) | TGI (U251 CNS) | TGI (MDA-MB-231 breast) | TGI (786-0 renal) | TGI (SR leukemia) | TGI (SK-MEL-5 melanoma) | TGI (SK-OV-3 ovarian)
